PubChem BioAssay (NCI)
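Growth conditions: 96-well plates. Treatment: test compound, 48 hours, 5 concentrations. Analysis: linear interpolation between bracketing concentrations; unreached endpoints set to highest concentration. The concentration for full growth arrest is given as TGI.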

Assays:
Experiment in all cases: growth of human tumour cells (NCI), 48 h
[1] = test system: SR leukemia
[2] = test system: OVCAR-5 ovarian
[3] = test system: SK-MEL-2 melanoma
[4] = test system: BT-549 breast
[5] = test system: MDA-N
[6] = test system: NCI-H226 lung
[7] = test system: HCC-2998 colon
[8] = test system: UO-31 renal
[9] = test system: MDA-MB-435
[10] = test system: K-562 leukemia
[11] = test system: HT29 colon
[12] = test system: UACC-62 melanoma
[13] = test system: M14 melanoma
[14] = test system: HL-60(TB) leukemia
[15] = test system: NCI/ADR-RES ovarian
[16] = test system: RPMI-8226 leukemia
[17] = test system: CCRF-CEM leukemia
[18] = test system: IGROV1 ovarian
[19] = test system: HOP-62 NSCLC
[20] = test system: MDA-MB-231 breast
[21] = test system: RXF 393 renal
[22] = test system: EKVX NSCLC
[23] = test system: NCI-H522 lung
[24] = test system: UACC-257 melanoma
[25] = test system: HOP-92 NSCLC
[26] = test system: HCT-116 colon
[27] = test system: OVCAR-3 ovarian
[28] = test system: CAKI-1 renal
[29] = test system: A549 NSCLC
[30] = test system: SK-MEL-28 melanoma
[31] = test system: 786-0 renal
[32] = test system: SF-539 CNS
[33] = test system: DU-145 prostate
[34] = test system: HCT-15 colon
[35] = test system: SK-OV-3 ovarian
[36] = test system: MALME-3M melanoma
[37] = test system: SW-620 colon
[38] = test system: MCF7 breast
[39] = test system: ACHN renal
[40] = test system: SNB-75 CNS
[41] = test system: SNB-19 CNS
[42] = test system: PC-3 prostate
[43] = test system: NCI-H460 lung
[44] = test system: KM12 colon
[45] = test system: T-47D breast
[46] = test system: U251 CNS
[47] = test system: A498 renal
[48] = test system: SN12C renal
[49] = test system: NCI-H23 lung
[50] = test system: MOLT-4 leukemia
[51] = test system: OVCAR-4 ovarian
[52] = test system: SF-295 CNS
[53] = test system: OVCAR-8 ovarian
[54] = test system: COLO 205 colon
[55] = test system: SF-268 CNS
[56] = test system: HS 578T breast
[57] = test system: TK-10 renal
[58] = test system: SK-MEL-5 melanoma
[59] = test system: LOX IMVI melanoma

SMILES: Cc1cn(C2CC(SCCO)C(CO)O2)c(=O)[nH]c1=O (stereo not drawn)
- TGI [1]: > 100 µM
- TGI [2]: > 100 µM
- TGI [3]: > 100 µM
- TGI [4]: > 100 µM
- TGI [5]: > 100 µM
- TGI [6]: > 100 µM
- TGI [7]: > 100 µM
- TGI [8]: > 100 µM
- TGI [9]: > 100 µM
- TGI [10]: > 100 µM
- TGI [11]: > 100 µM
- TGI [12]: > 100 µM
- TGI [13]: > 100 µM
- TGI [14]: > 100 µM
- TGI [15]: > 100 µM
- TGI [16]: > 100 µM
- TGI [17]: > 100 µM
- TGI [18]: > 100 µM
- TGI [19]: > 100 µM
- TGI [20]: > 100 µM
- TGI [21]: > 100 µM
- TGI [22]: > 100 µM
- TGI [23]: > 100 µM
- TGI [24]: > 100 µM
- TGI [25]: > 100 µM
- TGI [26]: > 100 µM
- TGI [27]: > 100000 nM
- TGI [28]: > 100 µM
- TGI [29]: > 100 µM
- TGI [30]: > 100 µM
- TGI [31]: > 100 µM
- TGI [32]: > 100 µM
- TGI [33]: > 100 µM
- TGI [34]: > 100 µM
- TGI [35]: > 100 µM
- TGI [36]: > 100 µM
- TGI [37]: > 100 µM
- TGI [38]: > 100 µM
- TGI [39]: > 100 µM
- TGI [40]: > 100 µM
- TGI [41]: > 100 µM
- TGI [42]: > 100 µM
- TGI [43]: > 100 µM
- TGI [44]: > 100 µM
- TGI [45]: > 100 µM
- TGI [46]: > 100 µM
- TGI [47]: > 100 µM
- TGI [48]: > 100 µM
- TGI [49]: > 100 µM
- TGI [50]: > 100 µM
- TGI [51]: > 100 µM
- TGI [52]: > 100 µM
- TGI [53]: > 100 µM
- TGI [54]: > 100 µM
- TGI [55]: > 100 µM

SMILES: Cc1cn([C@@H]2C[C@](C)(CO)N(C)O2)c(=O)[nH]c1=O
- TGI [1]: > 100 µM
- TGI [2]: > 100 µM
- TGI [56]: > 100 µM
- TGI [3]: > 100 µM
- TGI [4]: > 100 µM
- TGI [5]: > 100 µM
- TGI [6]: > 100 µM
- TGI [7]: > 100 µM
- TGI [8]: > 100 µM
- TGI [9]: > 100 µM
- TGI [10]: > 100 µM
- TGI [11]: > 100 µM
- TGI [12]: > 100 µM
- TGI [13]: > 100 µM
- TGI [57]: > 100 µM
- TGI [14]: > 100 µM
- TGI [15]: > 100 µM
- TGI [16]: > 100 µM
- TGI [17]: > 100 µM
- TGI [18]: > 100 µM
- TGI [19]: > 100 µM
- TGI [20]: > 100 µM
- TGI [21]: > 100 µM
- TGI [22]: > 100 µM
- TGI [23]: > 100 µM
- TGI [24]: > 100 µM
- TGI [25]: > 100 µM
- TGI [26]: > 100 µM
- TGI [28]: > 100 µM
- TGI [29]: > 100 µM
- TGI [30]: > 100 µM
- TGI [31]: > 100 µM
- TGI [33]: > 100 µM
- TGI [34]: > 100 µM
- TGI [35]: > 100 µM
- TGI [36]: > 100 µM
- TGI [37]: > 100 µM
- TGI [38]: > 100 µM
- TGI [39]: > 100 µM
- TGI [40]: > 100 µM
- TGI [41]: > 100 µM
- TGI [42]: > 100 µM
- TGI [43]: > 100 µM
- TGI [58]: > 100 µM
- TGI [44]: > 100 µM
- TGI [46]: > 100 µM
- TGI [47]: > 100 µM
- TGI [48]: > 100 µM
- TGI [49]: > 100 µM
- TGI [51]: > 100 µM
- TGI [52]: > 100 µM
- TGI [53]: > 100 µM
- TGI [54]: > 100 µM
- TGI [55]: > 100 µM
- TGI [59]: > 100 µM

SMILES: O=C1c2c(O)cccc2Cc2cccc(O)c21
- TGI [1]: 1.74 µM
- TGI [56]: 1.09 µM
- TGI [5]: 10.2 µM
- TGI [6]: 1.27 µM
- TGI [8]: 1.15 µM
- TGI [9]: 11.2 µM
- TGI [11]: 1.55 µM
- TGI [12]: 3.07 µM
- TGI [13]: 1.97 µM
- TGI [57]: 5.35 µM
- TGI [14]: 0.672 µM
- TGI [16]: 1.03 µM
- TGI [18]: 1.56 µM
- TGI [19]: 1.32 µM
- TGI [21]: 1.33 µM
- TGI [22]: 0.572 µM
- TGI [24]: 0.653 µM
- TGI [27]: 1970 nM
- TGI [28]: 1.2 µM
- TGI [29]: 1.07 µM
- TGI [30]: 3.75 µM
- TGI [31]: 1.76 µM
- TGI [32]: 0.923 µM
- TGI [33]: 0.942 µM
- TGI [35]: 1.21 µM
- TGI [38]: 0.664 µM
- TGI [39]: 1.1 µM
- TGI [41]: 5.39 µM
- TGI [43]: 1.31 µM
- TGI [58]: 0.33 µM
- TGI [44]: 1.32 µM
- TGI [46]: 1.47 µM
- TGI [47]: 4.81 µM
- TGI [49]: 12.8 µM
- TGI [51]: 1.8 µM
- TGI [52]: 0.782 µM
- TGI [53]: 1.04 µM
- TGI [55]: 3.25 µM

SMILES: COc1ccc(C(=O)/C=C/c2ccc(OCCCOc3ccc(/C=C/C(=O)c4ccc(OC)c(OC)c4)cc3)cc2)cc1OC
- TGI [1]: > 100 µM
- TGI [56]: > 100 µM
- TGI [3]: > 100 µM
- TGI [5]: > 100 µM
- TGI [6]: > 100 µM
- TGI [7]: > 100 µM
- TGI [8]: > 100 µM
- TGI [9]: > 100 µM
- TGI [10]: > 100 µM
- TGI [11]: > 100 µM
- TGI [12]: > 100 µM
- TGI [13]: > 100 µM
- TGI [57]: > 100 µM
- TGI [14]: > 100 µM
- TGI [15]: > 100 µM
- TGI [16]: > 100 µM
- TGI [17]: > 100 µM
- TGI [18]: > 100 µM
- TGI [19]: > 100 µM
- TGI [20]: > 100 µM
- TGI [21]: > 100 µM
- TGI [22]: > 100 µM
- TGI [24]: > 100 µM
- TGI [26]: > 100 µM
- TGI [28]: > 100 µM
- TGI [29]: > 100 µM
- TGI [30]: > 100 µM
- TGI [31]: > 100 µM
- TGI [32]: > 100 µM
- TGI [33]: > 100 µM
- TGI [34]: > 100 µM
- TGI [35]: > 100 µM
- TGI [37]: > 100 µM
- TGI [38]: > 100 µM
- TGI [39]: > 100 µM
- TGI [40]: > 100 µM
- TGI [41]: > 100 µM
- TGI [42]: > 100 µM
- TGI [43]: > 100 µM
- TGI [58]: > 100 µM
- TGI [44]: > 100 µM
- TGI [45]: > 100 µM
- TGI [46]: > 100 µM
- TGI [48]: > 100 µM
- TGI [50]: > 100 µM
- TGI [51]: > 100 µM
- TGI [52]: > 100 µM
- TGI [53]: > 100 µM
- TGI [54]: > 100 µM
- TGI [55]: > 100 µM
